From US10202362B2, “Inhibitors of leukotriene A4 hydrolase” (Celtaxsys, Inc., priority 2016, dated 2019) come the findings set out here.

A word on the IC50: it is the concentration that inhibits the measured activity by half.

Test [1] concerns the target LTA4 hydrolase peptidase activity (Homo sapiens (Human), UniProt P09960). As to the kind of experiment: Peptidase assay (hydrolysis of L-alanine-p-nitroanilide). The format is biochemical. Particulars: L-alanine-p-nitroanilide substrate. How it is done: Inhibition of peptidase activity was measured for the compounds of the invention by using methods similar to those described in Kull, F. et al., The Journal of Biological Chemistry 1999, 274 (49): 34683-34690.
In brief, the enzyme (29 nM) was incubated with L-alanine-p-nitroanilide (1 mM) in 50 mM HEPES (pH 7.5), 100 mM KCL, 1% DMSO in the absence or presence of a compound of the invention for 1 hour at ambient temperature. Reaction was terminated by addition of acetic acid (1%). Formation of colored nitro-aniline was measured by the increase in absorbance at 405 nm in a Victor 2 plate reader (Wallac). Spontaneous hydrolysis of the substrate was corrected for by subtracting the absorbance of control incubations without enzyme.

The target of test [2] is recombinant human LTA4 hydrolase (Homo sapiens (Human), UniProt P09960). As to the kind of experiment: LTA4 hydrolase homogeneous time resolved fluorescence (HTRF) assay. The format is biochemical. Conditions: inhibition of hydrolysis of LTA4 to LTB4. On the procedure: Compounds of the invention were tested in the LTA4 hydrolase homogeneous time resolved fluorescence (HTRF) assay to determine their ability to inhibit the hydrolysis of LTA4 to LTB4. The assay analyzes the amount of LTB4 produced.
LTA4 HTRF assay is a two-step assay involving enzymatic conversion of LTA4 to LTB4, and subsequent quantification of LTB4, product with HTRF assay.
The enzymatic conversion of LTA4 to LTB4 was performed in 384-well plates at ambient temperature in a reaction mixture containing 50 mM HEPES (pH 7.5), 0.5% BSA (fatty acid free), 18 nM recombinant human LTA4 hydrolase, 150 nM LTA4, 1% DMSO in the absence or presence of a compound of the invention. […]
LTB4 formed was quantified with the HTRF assay in which free LTB4 competes with LTB4-XL665 conjugate (acceptor) for anti-LTB4 monoclonal antibody labeled with Europium cryptate (donor), thereby inhibiting the fluorescence energy transfer.
The LTB4 HTRF 384-well assay was carried out by incubating LTB4 samples or standards with LTB4-XL665 conjugate (7.5 ng/well) and anti-LTB4 monoclonal antibody-Europium cryptate conjugate (0.5 ng/well) in 50 mM phosphate, 0.4 M KF and 0.1% casein, buffer (pH 7.0) for two hours at ambient temperature. Plates were read in a RubyStar plate reader (BmG Labtechnologies Inc., NC) simultaneously at 620 nm and 665 nm to obtain signal ratios of 665 nm/620 nm. […]
(In general: TR-FRET usually uses a lanthanide donor and a delayed reading to cut background.)

The subject of test [3] is LTB4 production in human whole blood. As to the kind of experiment: Whole blood assay (LTB4 release upon calcium ionophore, ELISA), human blood. Type of test: cell-based. Particulars: production of LTB4 in whole blood. On the procedure:
Compounds of the invention were tested for their ability as inhibitors of LTA4 hydrolase in a whole blood assay using human, mouse, rat or dog whole blood in a manner similar to that described in Penning, T. D. et al., J. Med. Chem. (2000), 43(4): 721-735. In this assay, compounds were tested for their ability to inhibit LTB4 release upon stimulation with calcium ionophore. The LTB4 levels in supernatants were measured by ELISA.

Sequence of LTA4 hydrolase peptidase activity (P09960 whole entry): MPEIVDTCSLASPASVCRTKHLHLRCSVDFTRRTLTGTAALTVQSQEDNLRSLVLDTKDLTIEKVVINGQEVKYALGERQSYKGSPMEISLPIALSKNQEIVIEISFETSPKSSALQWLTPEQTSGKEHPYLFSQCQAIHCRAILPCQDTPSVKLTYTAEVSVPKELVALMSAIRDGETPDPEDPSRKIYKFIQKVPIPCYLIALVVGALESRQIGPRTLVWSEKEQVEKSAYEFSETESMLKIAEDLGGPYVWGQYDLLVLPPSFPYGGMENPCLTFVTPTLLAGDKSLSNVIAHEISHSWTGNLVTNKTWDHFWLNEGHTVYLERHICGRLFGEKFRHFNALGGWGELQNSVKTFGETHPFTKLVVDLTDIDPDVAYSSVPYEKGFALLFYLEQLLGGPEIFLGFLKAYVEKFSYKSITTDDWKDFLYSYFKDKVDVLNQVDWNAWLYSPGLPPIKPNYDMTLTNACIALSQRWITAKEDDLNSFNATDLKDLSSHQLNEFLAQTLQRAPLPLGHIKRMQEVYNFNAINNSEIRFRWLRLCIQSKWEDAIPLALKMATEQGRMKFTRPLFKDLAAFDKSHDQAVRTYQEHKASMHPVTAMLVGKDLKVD
Sequence of recombinant human LTA4 hydrolase (P09960 whole entry): as above

As to `O=C(O)C1CCN(C(=O)CN2CCC(Nc3ccc(Oc4ccc(-c5ncco5)cc4)cc3)CC2)CC1` [Example 1, 1-(2-(4-((4-(4-(oxazol-2-yl)phenoxy)phenyl)amino)piperidin-1-yl)acetyl)piperidine-4-carboxylic acid], the half-inhibitory concentration (IC50) in test [1] came out at 7.1 nM; in test [2], 2.1 nM; in test [3], 62 nM.
In the same order, the values of `O=C(O)c1ccc(CN2CCCC(CNc3ccc(Oc4ccc(Cl)cc4)cc3)C2)cc1` (stereo not drawn) [Example 3, 4-((3-(((4-(4-chlorophenoxy)phenyl)amino)methyl)piperidin-1-yl)methyl)benzoic acid] are 22 nM, 1.8 nM and 100 nM.
